Ends that are not written are not given here.
Experiments:
GALR2 receptor = molecular target: T1, GALR2 receptor (Homo sapiens, UniProt O43603); assay: Microphysiometry, extracellular acidification rate, SY5Y cells expressing GALR2; format: cell-based; conditions: human neuroblastoma cells SY5Y expressing GALR2; alarin 100 nM
T1 construct: expressed in transfected cells; host or cells: SH-SY5Y human neuroblastoma cells
T1 sequence (O43603 1-387): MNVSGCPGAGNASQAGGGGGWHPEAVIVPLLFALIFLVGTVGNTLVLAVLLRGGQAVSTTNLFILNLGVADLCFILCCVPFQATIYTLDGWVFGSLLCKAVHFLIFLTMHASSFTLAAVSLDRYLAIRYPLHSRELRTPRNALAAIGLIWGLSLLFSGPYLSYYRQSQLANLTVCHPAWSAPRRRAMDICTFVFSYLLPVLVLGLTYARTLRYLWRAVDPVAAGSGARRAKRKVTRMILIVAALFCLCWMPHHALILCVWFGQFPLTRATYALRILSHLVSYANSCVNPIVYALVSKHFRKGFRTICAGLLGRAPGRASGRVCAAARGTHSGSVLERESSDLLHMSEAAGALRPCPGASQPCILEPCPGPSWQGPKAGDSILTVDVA

galanin receptors [1] = assay: Receptor binding assay, displacement of radiolabeled GAL from membrane preparations; conditions: binding assays and functional microphysiometry, 50 pM [125I]GAL
Experimental: Membrane preparations and radioligand binding assays were performed according to Berger et al. (Berger et al., 2002). Displacement of radiolabeled GAL binding to membrane preparations (15 μg) was carried out in duplicates in a total volume of 120 μl of binding buffer containing 50 pM [125I]GAL (2,000 Ci/mmol; Amersham Pharmacia Biotech (Little Chalfont, UK) and different concentrations of synthetic murine alarin (1-25-amide) and alarin (3-25-amide).

galanin receptors [2] = assay: Microphysiometry on galanin receptor expressing cells, receptor activation; format: cell-based, human; conditions: binding assays and microphysiometry on galanin receptor expressing cells
Experimental: After reaching confluency the cells are harvested and seeded into 3.0 μm pore transwells (Corning Costar) held in 12 well plates one day before the experiment. The cells are allowed to settle down in the culture medium and cultured overnight in serum-free growth-medium. The ECAR of cells is determined by using a Cytosensor Microphysiometer (Molecular Devices). A capsule spacer and a capsule insert are assembled in the transwells, transferred into a sensor chamber and kept in DMEM without sodium bicarbonate throughout the entire experiment at 37° C. The running medium is pumped through each sensor chamber at 50 μl min^−1. A typical pumping cycle of 120 s consists of a flow period of 90 s, followed by a flow-off period of 30 s. During flow-off periods, protons released from the cells accumulate in the sensor chamber, and the rate of proton release is quantified by fitting the sensor data to a straight line with the least-squares fit to the slope of the pH profile. Agonists or other agents are diluted into running medium and perfused through a second fluid path. […]
SH-SY5Y/GalR1 and SH-SY5Y/GalR2 cells (Berger 2004) were seeded into 3.0-μM pore size Transwells (Corning Costar, Cambridge, Mass., USA). The extracellular acidification rate was determined using a cytosensor microphysiometer (Molecular Devices, Ismanning, Germany) as previously reported (Lang et al., 2001).

CD-1 mouse skin = assay: Inflammatory oedema formation (plasma extravasation) in mouse dorsal skin; format: in vivo
Experimental: Experiments involving mice were carried out under the Animals (Scientific Procedures) Act, 1986. Normal female CD-1 mice (22-27 g, 8-12 weeks) were obtained from Charles River, U.K. All mice were maintained on normal diet, with free access to food and water, in a climatically controlled environment. Animals were anaesthetized with urethane (25% w v-1; 2.5 g kg-1 i.p.) and the dorsal skin was shaved. Injection sites were chosen according to a randomized site pattern on the dorsal skin of the anaesthetized mouse. Agents were from Sigma, Poole, U.K., unless specified. Alarin (1-25)-amide (murine) alarin (3-32)-amide (murine) were custom synthesized by NeoMPS Inc. (Strasbourg, France). All peptides were dissolved in distilled water. The stock solutions (10 nM) were stored at −20° C. and further diluted in Tyrode's solution (137 mM NaCl, 2.7 mM KCl, 0.5 mM MgCl2, 0.4 mM NaH2PO4, 11.9 mM NaHCO3, 5.6 mM glucose) just prior use.
Plasma extravasation was used as an index of inflammatory oedema formation and measured as previously described (Cao et al, 1999). Briefly, test agents were diluted in Tyrode's solution and stored on ice. […] The amount of plasma extravasated (μl g-1 tissue) was calculated by comparing the amount of radioactivity in each skin site with that in 100 μl plasma from the same animal.

CNS = assay: Functional assays in the CNS with murine alarin peptides; format: in vivo, mice (C57Bl/6); conditions: amidated synthetic murine peptides 1-25 and 3-25
Experimental: (§1) Intact adult male mice (C57Bl/6) were treated by a single injection into the lateral ventricles with either artificial cerebrospinal fluid (aCSF), alarin 1-25 (A1), alarin 3-25 (A3). Each treatment was given in an equimolar dose of 5 nmol. Body weight and food weight were measured at 1 hr, 2 hr, and 24 hr post injection. (Shown here as percent change in body weight from baseline).
(§2) Intact adult male mice (C57Bl/6) were treated by a single injection into the lateral ventricles with either artificial cerebrospinal fluid (aCSF), alarin 1-25 (A1), alarin 3-25 (A3). Each treatment was given in an equimolar dose of 5 nmol. Body weight and food weight were measured at 1 hr, 2 hr, and 24 hr post injection. (Shown here as grams of food consumed).
(§3) Intact adult male mice (C57Bl/6) were treated by a single injection into the lateral ventricles with either artificial cerebrospinal fluid (aCSF), alarin 1-25 (A1), alarin 3-25 (A3). Each treatment was given in an equimolar dose of 5 nmol. Blood was collected 30 min after injection and serum was assayed for LH content. (LH levels shown here in ng/ml).

[3] = Body weight after injection into the lateral ventricles; format: in vivo, mice (C57Bl/6); conditions: 5 nmol, single injection into lateral ventricles, one hour after injection, adult male mice
Experimental: as §1

[4] = Food intake after injection into the lateral ventricles; format: in vivo, mice (C57Bl/6); conditions: 5 nmol, single injection into lateral ventricles, one hour after injection, adult male mice
Experimental: as §2

[5] = Luteinising hormone (LH) level after injection into the lateral ventricles; format: in vivo, mice (C57Bl/6); conditions: 5 nmol, single injection into lateral ventricles, blood collected 30 min after injection, adult male mice
Experimental: as §3

Row | Substance | change in extracellular acidification (GALR2 receptor) | binding to galanin receptors (galanin receptors [1]) | activation of galanin receptors (galanin receptors [2]) | inhibition of inflammatory oedema (CD-1 mouse skin; co-injection with substance P (300 pmol) and CGRP (10 pmol), intradermal, murine dorsal skin) | potency in inhibition of oedema formation in the skin, alarin 1-25 compared with alarin 3-25 (CD-1 mouse skin; amidated synthetic murine peptides) | activity in the CNS (CNS) | body weight [3] | food intake [4] | plasma LH levels [5]
1 | APAHRSSTFPKWVTKTERGRQPLRS (listed as Homo sapiens) [alarin, novel neuropeptide, splice variant of GALP mRNA] | No change | can be excluded | not able to activate these receptors | inhibition of inflammatory oedema | – | – | – | – | –
2 | Alarin 1-25: amidated synthetic murine alarin peptide 1-25 (APAHRSSPFPPRPTRAGRETQLLRS-NH2) | – | – | – | – | more potent | only alarin 3-25 was active in the CNS | – | – | –
3 | Alarin 3-25: amidated synthetic murine alarin peptide 3-25 (AHRSSPFPPRPTRAGRETQLLRS-NH2) | – | – | – | – | – | active | significant reduction | significant decrease | significant increase

Reference: patent US7928187B2, “Neuropeptide alarin” (Austria Wirtschaftsservice Gesellschaft mit beschrankter …, priority 2005, dated 2011)
